According to patent US20250230193A1, “CYCLIC COMPOUND HAVING SELECTIVE KRAS INHIBITORY EFFECT ON HRAS AND NRAS” (CHUGAI SEIYAKU KABUSHIKI KAISHA, priority 2022, published 2025):
Where a SMILES comes first, the peptide text is derived from it. Bridges are numbered along the chain shown (N, C = ends). [ ]: non-standard residue; d: D form. The star is where a group is joined. hPhe(3-Cl-4-CF3) = N[C@@H](CCc1ccc(C(F)(F)F)c(Cl)c1)C(=O)O; NPrPhe(4-CF3) = CCCN[C@@H](Cc1ccc(C(F)(F)F)cc1)C(=O)O; Pip(4,4-F2) = O=C(O)[C@@H]1CC(F)(F)CCN1; NMeGly(cPent) = CN[C@H](C(=O)O)C1CCCC1; NMeD = CN[C@@H](CC(=O)O)C(=O)O; NMeL = CN[C@@H](CC(C)C)C(=O)O; Morpholide = C1CN(*)CCO1; Ac5c = NC1(C(=O)O)CCCC1; Aze = O=C(O)[C@@H]1CCN1; Sar = CNCC(=O)O

What was measured:
[1] = biological target: GDP-bound NRAS wild-type protein (Homo sapiens, UniProt P01111); test: Binding to NRAS by surface plasmon resonance (SPR), Single Cycle Kinetics; details: SPR; for NRAS/KRAS (ratio of KD value with respect to NRAS to KD value with respect to KRAS): GDP-bound NRAS wild-type vs GDP-bound KRAS wild-type
Sequence of GDP-bound NRAS wild-type protein (P01111 whole entry): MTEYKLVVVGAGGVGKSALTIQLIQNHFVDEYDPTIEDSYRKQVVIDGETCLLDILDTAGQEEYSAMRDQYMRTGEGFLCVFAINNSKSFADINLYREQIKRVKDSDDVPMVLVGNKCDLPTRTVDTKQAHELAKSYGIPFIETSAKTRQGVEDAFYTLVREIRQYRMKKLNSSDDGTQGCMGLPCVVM

[2] = biological target: GDP-bound HRAS wild-type protein (Homo sapiens, UniProt P01112); test: Binding to HRAS by surface plasmon resonance (SPR), Single Cycle Kinetics; details: SPR; for HRAS/KRAS (ratio of KD value with respect to HRAS to KD value with respect to KRAS): GDP-bound HRAS wild-type vs GDP-bound KRAS wild-type
Sequence of GDP-bound HRAS wild-type protein (P01112 whole entry): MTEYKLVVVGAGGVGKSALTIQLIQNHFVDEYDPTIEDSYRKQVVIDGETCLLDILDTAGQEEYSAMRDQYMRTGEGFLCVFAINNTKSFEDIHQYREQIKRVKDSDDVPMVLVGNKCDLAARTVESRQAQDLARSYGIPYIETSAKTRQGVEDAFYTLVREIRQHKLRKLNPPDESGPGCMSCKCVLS

What does the source list for `C=CC[C@H]1C(=O)N[C@@H]([C@@H](C)CC)C(=O)N(C)CC(=O)N(C)[C@H]2CCCCN(C2=O)[C@@H](Cc2ccc(C(F)(F)F)cc2)C(=O)N(C)CC(=O)N[C@@H](CCc2cc(F)c(C(F)(F)F)c(F)c2)C(=O)N2C[C@H](OCC)C[C@H]2C(=O)NC2(CCC2)C(=O)N(C)[C@@H](C2CCCC2)C(=O)N(C)[C@H](C(=O)N(C)C)CC(=O)N1C` [PP0695]?
NRAS/KRAS (ratio of KD value with respect to GDP-bound NRAS wild-type protein to KD value with respect to KRAS) ([1]; KD ratio NRAS/KRAS): C (A compound having a KD ratio of 0.1 or more and less than 3 is denoted as C); HRAS/KRAS (ratio of KD value with respect to GDP-bound HRAS wild-type protein to KD value with respect to KRAS) ([2]; KD ratio HRAS/KRAS): C (A compound having a KD ratio of 0.1 or more and less than 3 is denoted as C)

For `CCO[C@@H]1C[C@H]2C(=O)NC3(CCC3)C(=O)N(C)[C@@H](C3CCCC3)C(=O)N(C)[C@H](C(=O)N3CCOCC3)CC(=O)N(C)[C@@H](CC(C)C)C(=O)N[C@@H]([C@H](C)CC)C(=O)N(C)CC(=O)N(C)[C@H]3CCCCN(C3=O)[C@@H](Cc3ccc(C(F)(F)F)cc3)C(=O)N(C)CC(=O)N[C@@H](CCc3cc(F)c(C(F)(F)F)c(F)c3)C(=O)N2C1` [PP0806], which “NRAS/KRAS (ratio of KD value with respect to GDP-bound NRAS wild-type protein to KD value with respect to KRAS)” value ([1]; KD ratio NRAS/KRAS) is on record?
The value was “B (a compound having 3 or more and less than 10 is denoted as B)”.

And the “HRAS/KRAS (ratio of KD value with respect to GDP-bound HRAS wild-type protein to KD value with respect to KRAS)” value ([2]; KD ratio HRAS/KRAS)?
Its value is “B (a compound having 3 or more and less than 10 is denoted as B)”.

Which “NRAS/KRAS (ratio of KD value with respect to NRAS to KD value with respect to KRAS)” value ([1]; KD ratio) does the source give for `CCO[C@@H]1C[C@H]2C(=O)NC3(CCC3)C(=O)N(C)[C@@H](C3CCCC3)C(=O)N(C)[C@H](C(=O)N3C4CCC3COC4)CC(=O)N(C)[C@@H](CC)C(=O)N[C@@H]([C@@H](C)CC)C(=O)N(C)CC(=O)N(C)[C@H]3C/C=C\CCN(C3=O)[C@@H](Cc3ccc(C(F)(F)F)cc3)C(=O)N(C)CC(=O)N[C@@H](CCc3cc(F)c(C(F)(F)F)c(F)c3)C(=O)N2C1` [PP1093] here?
The value was “AA (a compound having 20 or more is denoted as AA)”.

What about the “HRAS/KRAS (ratio of KD value with respect to HRAS to KD value with respect to KRAS)” value ([2]; KD ratio) of the same compound?
The value was “A (a compound having 10 or more and less than 20 is denoted as A)”.

Which results are given for `CCCOC[C@H]1C(=O)N[C@@H]([C@@H](C)CC)C(=O)N2CCC[C@H]2C(=O)N(C)[C@H]2C/C=C\CCN(C2=O)[C@@H](CC2CCC(F)(F)CC2)C(=O)N(C)CC(=O)N[C@@H](CCc2ccc(C(F)(F)F)c(OC)c2)C(=O)N2C[C@H](OCC)C[C@H]2C(=O)N(C)C2(CCC2)C(=O)N(C)[C@@H](C2CCCC2)C(=O)N(C)[C@H](C(=O)N(C)C)CC(=O)N1C` [PP2357]?
NRAS/KRAS (ratio of KD value with respect to NRAS to KD value with respect to KRAS) [1]: A (a compound having 10 or more and less than 20 is denoted as A); HRAS/KRAS (ratio of KD value with respect to HRAS to KD value with respect to KRAS) [2]: B (a compound having 3 or more and less than 10 is denoted as B)

How did the “NRAS/KRAS (ratio of KD for GDP-bound NRAS wild-type to KD for KRAS)” value ([1]; KD ratio NRAS/KRAS) turn out when `CCCN1C(=O)CN(C)C(=O)[C@@H]2CCN2C(=O)[C@H]([C@@H](C)CC)NC(=O)[C@H](CC(C)C)N(C)C(=O)C[C@@H](C(=O)N2CCOCC2)N(C)C(=O)[C@H](C2CCCC2)N(C)C(=O)C2(CCCC2)NC(=O)[C@@H]2CC(F)(F)CCN2C(=O)[C@H](CCc2ccc(C(F)(F)F)c(Cl)c2)NC(=O)CN(C)C(=O)[C@@H]1Cc1ccc(C(F)(F)F)cc1` [PP0312] ([NMeL]I[Aze][Sar][NPrPhe(4-CF3)][Sar][hPhe(3-Cl-4-CF3)][Pip(4,4-F2)][Ac5c][NMeGly(cPent)][NMeD]-Morpholide; lactam N-11) was run?
The value was “B (a compound having 3 or more and less than 10 is denoted as B)”.

What about the “HRAS/KRAS (ratio of KD for GDP-bound HRAS wild-type to KD for KRAS)” value ([2]; KD ratio HRAS/KRAS) of the same compound?
Its value is “B (a compound having 3 or more and less than 10 is denoted as B)”.

How did the “NRAS/KRAS (ratio of KD value with respect to NRAS to KD value with respect to KRAS)” value ([1]; KD ratio) turn out when `CCO[C@@H]1C[C@H]2C(=O)NC3(CCC3)C(=O)N(C)[C@@H](C3CCCC3)C(=O)N(C)[C@H](C(=O)N3CCOCC3)CC(=O)N(C)[C@@H](CC)C(=O)N[C@@H]([C@@H](C)CC)C(=O)N3CC[C@H]3C(=O)N(C)[C@H]3CC(C)=CCN(C3=O)[C@@H](Cc3ccc(C(F)(F)F)cc3)C(=O)N(C)CC(=O)N[C@@H](CCc3cc(F)c(C(F)(F)F)c(F)c3)C(=O)N2C1` [PP1042] was run?
The value was “C (A compound having a KD ratio of 0.1 or more and less than 3 is denoted as C)”.

What about the “HRAS/KRAS (ratio of KD value with respect to HRAS to KD value with respect to KRAS)” value ([2]; KD ratio) of the same compound?
Its value is “C (A compound having a KD ratio of 0.1 or more and less than 3 is denoted as C)”.

What does the source list for `CC[C@H](C)[C@@H]1NC(=O)[C@H](CC)N(C)C(=O)C[C@@H](C(=O)N(C)C)N(C)C(=O)[C@H](C2CCCC2)N(C)C(=O)C2(CCC2)NC(=O)[C@@H]2C[C@H](N3CCC(F)(F)CC3)CN2C(=O)[C@H](CCc2cc(F)c(C(F)(F)F)c(F)c2)NC(=O)CN(C)C(=O)[C@H](Cc2ccc(C(F)(F)F)cc2)N2CCCC[C@@H](C2=O)N(C)C(=O)CN(C)C1=O` [PP0732]?
NRAS/KRAS (ratio of KD value with respect to GDP-bound NRAS wild-type protein to KD value with respect to KRAS) ([1]; KD ratio NRAS/KRAS): C (A compound having a KD ratio of 0.1 or more and less than 3 is denoted as C); HRAS/KRAS (ratio of KD value with respect to GDP-bound HRAS wild-type protein to KD value with respect to KRAS) ([2]; KD ratio HRAS/KRAS): B (a compound having 3 or more and less than 10 is denoted as B)
